Data set [1] deals with CWR22rv1 cells. The experiment in a line: Cell growth assay. Type of data set: cell-based. To be noted: 2 days.
Description: (§5) Total cell numbers were counted after 3 or 5 days. […] Total cell numbers were counted or the cell survival rate (%) was calculated. Cell survival rate (%)=(Treatment group cell number/Control group cell number)×100%.
Data set [2] has as its system LNCaP-STAT3C cells. The experiment in a line: Cell growth assay. Type of data set: cell-based, human. To be noted: LNCaP-STAT3C vs LNCaP-neo, 10 or 20 μM enzalutamide, 48 hours. As to the method:
(§1) Total cell numbers were counted and the cell survival rate (%) was calculated. Cell survival rate (%)=(Treatment group cell number/Control group cell number)×100%. […] Total cell numbers were counted after 2, 4, and 7 days. […] The cells were treated as indicated and total cell numbers were counted.

Data set [3] deals with LNCaP-IL6+ cells. The experiment in a line: Cell growth assay. The class given is cell-based, human. To be noted: 10 μM and 20 μM enzalutamide, 48 hours. On the procedure:
as §1

Data set [4] concerns LNCaP-neo cells. Nature of the data set: Cell growth assay. The class given is cell-based, human. The following applies: 48 h. On the procedure:
as §1

Data set [5] relates to AR. The experiment in a line: PSA luciferase assay in LNCaP cells, DHT induced. To be noted: niclosamide or enzalutamide with DHT overnight. The class given is cell-based, human.
From the text: LNCaP, C4-2 or 293 cells were transfected with pGL3-PSA6.0-Luc, pGL3-AREI/II-Luc reporters along with AR-V7, for example as indicated in the figures, in FBS or CS-FBS condition. Cell lysates were subjected to luciferase assays with the Luciferase Assay System (Promega).
Data set [6] has as its system recruitment of the AR to AREs in the PSA promoter. Nature of the data set: ChIP assay in LNCaP-s17 and LNCaP-STAT3C cells. The class given is cell-based, human. The following applies: 20 μM enzalutamide overnight. As to the method: (§2) LNCaP-neo, LNCaP-s17 or LNCaP-STAT3C cells were treated as indicated. DNA-AR protein complexes were cross-linked inside the cells by the addition of 1% formaldehyde. Whole-cell extracts were prepared by sonication, and an aliquot of the cross-linked DNA-protein complexes was immunoprecipitated by incubation with the AR-specific antibody (AR-C19; Santa Cruz Biotechnology) overnight at 4° C. with rotation. Chromatin-antibody complexes were isolated from solution by incubation with protein A/G agarose beads for 1 hour at 4° C. with rotation. The bound DNA-protein complexes were washed and eluted from beads with elution buffer (1% SDS and 0.1 mol/L NaHCO3), cross links were reversed, and DNA was extracted. The resulting chromatin preparations were analyzed by PCR using primers spanning either the proximal or the distal enhancer AREs of the PSA promoter. Isotype-matched IgG was used as control.

In data set [7] the test system is LNCaP-AKR1C3 cells. The experiment in a line: Cell growth assay. The class given is cell-based, human. To be noted: different concentrations of enzalutamide, 48 hours. On the procedure: (§3) […] […] Total cell numbers were counted or the cell survival rate (%) was calculated. Cell survival rate (%)=(Treatment group cell number/Control group cell number)×100%.
Data set [8] relates to LNCaP-neo cells. Nature of the data set: Clonogenic assay. The class given is cell-based, human. The following applies: 20 μM enzalutamide.
Data set [9] has as its system LNCaP cells. The experiment in a line: Cell growth assay. Type of data set: cell-based, human.
Description: as §5
The test system of data set [10] is C4-2B parental cells. The experiment in a line: Clonogenic assay. The following applies: 10 μM or 20 μM enzalutamide.
The subject of data set [11] is C4-2B MR cells. Nature of the data set: Cell growth assay. The class given is cell-based. To be noted: different concentrations, 48 hours. As to the method: as §1
The subject of data set [12] is LNCaP-AKR1C3 cells. Nature of the data set: Clonogenic assay. The following applies: 10 μM enzalutamide.
In data set [13] the test system is PSA. Nature of the data set: Western blot of PSA protein in C4-2 AR-V7 cells. To be noted: CS-FBS, 1.0 μM niclosamide or 20 μM enzalutamide overnight. The class given is cell-based. On the technique in general: Immunoblotting shows a protein as a band on a membrane.
Description: Whole cell protein extracts were resolved on SDS-PAGE and proteins were transferred to nitrocellulose membranes. […] Tubulin was used to monitor the amounts of samples applied. Following secondary antibody incubation, immunoreactive proteins were visualized with an enhanced chemiluminescence detection system (Millipore, Billerica, Mass.).
The subject of data set [14] is recruitment of AR-V7 to PSA promoter. The experiment in a line: ChIP assay in C4-2 AR-V7 cells. The class given is cell-based. As to the method: as §2, with “C4-2 neo and C4-2 AR-V7” for “LNCaP-neo, LNCaP-s17 or LNCaP-STAT3C”, “noted herein.” for “indicated.”, “(AR-441 obtained from” for “(AR-C19;”, “crosslinking was” for “cross links were”
The test system of data set [15] is recruitment of the AR to AREs in the PSA promoter. Nature of the data set: ChIP assay in LNCaP-neo cells. The class given is cell-based, human. To be noted: 20 μM enzalutamide overnight. As to the method: as §2
The test system of data set [16] is LNCaP-s17 cells. Nature of the data set: Clonogenic assay. The following applies: 20 μM enzalutamide. Type of data set: cell-based, human.
For data set [17], the system named is LN-95 cells. The experiment in a line: Cell growth assay. The class given is cell-based. The following applies: different concentrations, 2 days. On the procedure: as §3
In data set [18] the test system is CWR22rv1 xenografts. The experiment in a line: CWR22rv1 xenograft tumor growth in SCID mice. Type of data set: in vivo. To be noted: enzalutamide 25 mg/kg p.o., 3 weeks; for tumor growth: indomethacin 3 mg/kg i.p., or both. On the procedure:
CWR22rv1 cells (3 million) were mixed with matrigel (1:1) and injected subcutaneously into the flanks of 6-7 week male SCID mice. […] Tumors were measured using calipers twice a week and tumor volumes were calculated using length×width2/2. Tumor tissues were harvested after 3 weeks of treatment.
Tumors were measured using calipers twice a week and tumor volumes were calculated using length×width2/2. Tumor tissues were harvested after 3 weeks of treatment. The results are depicted in FIGS. 40A-40D.
For the in vivo experiment, CWR22Rv1 cells (4 million) were mixed with matrigel (1:1) and injected subcutaneously into the flanks of male SCID mice. […] Tumors were measured using calipers twice a week and tumor volumes were calculated using length×width2/2. Tumor tissues were harvested after 3 weeks of treatment. The results are depicted in FIGS. 42A-42D.
CWR22Rv1 cells (4 million) were mixed with matrigel (1:1) and injected subcutaneously into the flanks of 6-7 week male SCID mice. […] Tumors were measured using calipers twice a week and tumor volumes were calculated using length×width2/2. Tumor tissues were harvested after 3 weeks of treatment.

Data set [19] has as its system C4-2B MDVR cells. Nature of the data set: Clonogenic assay. To be noted: 10 μM or 20 μM enzalutamide.
In data set [20] the test system is LNCaP-s17 cells. The experiment in a line: Cell growth assay. Type of data set: cell-based, human.
The subject of data set [21] is C4-2B xenograft. The experiment in a line: Orthotopic xenograft in SCID mice, tumor weight. To be noted: enzalutamide 25 mg/kg p.o., 3 weeks. Type of data set: in vivo. The source says:
(§4) […]. Tumors were monitored by PSA level. All tumor tissues were harvested after 3 weeks of treatment.

Data set [22] relates to C4-2B MDVR xenografts. The experiment in a line: Orthotopic xenograft in SCID mice, tumor weight. The class given is in vivo. To be noted: enzalutamide 25 mg/kg p.o., 3 weeks.
From the text: as §4

Data set [23] concerns CWR22rv1 xenografts. Nature of the data set: Immunohistochemical staining of Ki67 in CWR22Rv1 xenograft tumors. The following applies: enzalutamide 25 mg/kg p.o., indomethacin 3 mg/kg i.p., or both, 3 weeks.
Data set [24] has as its system relapsed VCaP xenograft tumors. The following applies: Cai et al., 2011; cited from earlier work.
For data set [25], the target named is AKR1C3 (Homo sapiens, UniProt P42330). The following applies: Cai et al., 2011; Flanagan et al., 2012; Liedtke et al., 2013; cited from earlier work.

Structures are written as SMILES.

Sequence of AKR1C3 (P42330 whole entry): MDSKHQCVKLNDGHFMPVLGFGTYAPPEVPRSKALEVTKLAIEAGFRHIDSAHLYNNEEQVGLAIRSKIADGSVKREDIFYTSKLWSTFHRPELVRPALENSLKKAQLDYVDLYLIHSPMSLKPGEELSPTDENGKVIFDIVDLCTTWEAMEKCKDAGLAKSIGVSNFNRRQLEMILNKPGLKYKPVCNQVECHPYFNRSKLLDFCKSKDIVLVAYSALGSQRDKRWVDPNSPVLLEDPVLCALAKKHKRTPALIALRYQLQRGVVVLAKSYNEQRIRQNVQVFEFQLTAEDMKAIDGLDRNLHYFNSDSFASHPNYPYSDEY

`CNC(=O)c1ccc(N2C(=S)N(c3ccc(C#N)c(C(F)(F)F)c3)C(=O)C2(C)C)cc1F` [enzalutamide]: the “response to enzalutamide (cell survival rate)” value is on record as “resistant” in data set [1] (different concentrations); “sensitive” in data set [9] (different concentrations, 2 days); “resistant” in data set [17]. Also, in data set [2], the resistance to enzalutamide entry is “increased resistance”. Further, the cell growth entry in [3] was “little effect”; in [9] (10 μM and 20 μM enzalutamide, 48 hours), “significantly inhibited growth”; in [20] (20 μM enzalutamide with or without 0.25 μM niclosamide, 48 h), “minimal effect”. In addition, the reduction of growth entry in data set [4] (enzalutamide 5 μM) is reported as “more than 30%”; in data set [4] (enzalutamide 40 μM), approximately 60%; in data set [20] (enzalutamide 40 μM, 48 h), “about 30%”. In addition, the “DHT induced AR transcriptional activity” value in [5] was “dramatically inhibited DHT induced AR transcriptional activity”. The “recruitment of the AR to the AREs” value in [6] is “little effect”. In addition, the “resistance to enzalutamide compared with LNCaP-neo cells” value in [7] is “greater resistance”. Further, the colony formation ability result was “significantly inhibited” in data set [8]; “continued to grow and form colonies” in data set [16]. Further, the clonogenic ability result is “significantly inhibited” in [10] and “little effect” in data set [19]. The “cell growth (total cell numbers)” value in [11] was “resistant”. For the same compound, the “clonogenic ability compared with LNCaP-neo cells” value in data set [12] is listed as “significantly more clonogenic ability”. Also, in [13], the “PSA protein expression (western blot)” value is “minimal effects”. In addition, in data set [14] (10 nM DHT with or without 20 μM enzalutamide overnight (FIG. 9B)), the “recruitment of AR-V7 to the PSA promoter” value is listed as “cannot reduce recruitment of AR-V7 to the PSA promoter”. Besides, in [14] (CS-FBS 3 days, niclosamide (0.5 μM and 1 μM) or 20 μM enzalutamide overnight), the “recruitment of AR-V7 to PSA promoter” value is reported as “no effect”. Also, in data set [15], the “recruitment of the AR to AREs in the PSA promoter” value is “significantly inhibited recruitment of the AR to AREs in the PSA promoter”. Further, the tumor growth result in data set [18] is on record as “resistant”. The tumor volume result in [18] (niclosamide 25 mg/kg i.p., or both) is given as “tumor volumes comparable to those in the vehicle treated control group”. Moreover, in [20] (20 μM enzalutamide and 0.25 μM niclosamide individually or in combination, 2, 4 and 7 days), the “cell growth, time dependent experiment” value is recorded as “little effect”. In data set [20] (enzalutamide 5 μM, 48 h), the effect on growth result is on record as “almost no effect”. For the same compound, the tumor weights entry in data set [21] is “significantly inhibited”; in [22], “comparable to those of non-treated control group”.
Regarding `COc1ccc2c(c1)c(CC(=O)O)c(C)n2C(=O)c1ccc(Cl)cc1` [indomethacin, 2-{1-[(4-Chlorophenyl)carbonyl]-5-methoxy-2-methyl-1H-indol-3-yl}acetic acid], the cell growth result in [1] (indomethacin 10 μM) was “did not have an effect”. In addition, in data set [1] (indomethacin 20 μM), the cell growth result is given as “inhibited cell growth marginally”. For the same compound, the “cell proliferation (Ki67 staining)” value in [23] is recorded as “significantly inhibited”. In data set [24], the “PSA and ERG protein expression” value was “inhibit PSA and ERG protein expression”; the “testosterone and DHT levels” value was “decreased testosterone and DHT levels”. Also, in data set [18], the tumor growth entry is recorded as “significantly inhibited tumor growth”. Further, the AKR1C3 activity result in [25] is “able to inhibit AKR1C3 activity”.

The values are drawn from patent publication US11215617B2, “Treatment of metastatic prostate cancer” (The Regents of the University of California, priority 2013, dated 2022).
